Test system: skin brightness/luminance, Asian subjects
Test: Self-assessment of skin brightness/luminance, Asian subjects
Type: in vivo, human
Details: Week 8
Method: Included subjects were: • 1. Female subjects between the ages of 35-66 (inclusive) in general good health • 2. Asian subjects who had skin brightness/luminance score of “5” (moderately dull/sallow appearance) or greater on the face (for qualification only) as assessed by a trained technician and whose brightness/luminance were evaluated according to the following scale: 0—No dullness/sallowness visible, 1-3—Slightly dull/sallow appearance, 4-6—Moderately dull/sallow appearance, 7-9—Severely dull/sallow appearance. • 3. […] Individuals who could read, understand, and sign the Informed Consent form. • 5. […] At all visits, a trained technician evaluated the face of each subject for irritation. […] Results: Skin brightness/luminance (Asian subjects): In order to determine any changes in skin brightness/luminance, skin brightness (luminosity) was analyzed by Visia CR®. Facial luminance was a single number calculated based on the uniformity of the lightening of the image. […] There were no significant changes to brightness/luminance as assessed by the Visia CR® analysis at any of the clinic visits, although the Mean Score for skin brightness/luminance trended toward an increase at 4 and 8 weeks after starting dimethoxytolyl propylresorcinol use compared to Baseline (Table 24), indicating an improvement in skin brightness/luminance.

COc1ccc(CCCc2ccc(O)cc2O)c(OC)c1C [dimethoxytolyl propylresorcinol, 1-(3-methyl-2,4-dimethoxyphenyl)-3-(2′,4′-dihydroxyphenyl)-propane]
Self-Assessment Skin Brightness/Luminance % Improvement from Baseline: 13%

Source: patent publication US20230320956A1, “DIARYLALKANE COMPOUNDS AND COMPOSITIONS FOR USE WITH SKIN AGING AND METHODS OF PRODUCTION THEREOF” (Unigen, Inc., priority 2022, published 2023)
